Results on ten molecules are retold here after patent publication US11834414B2, “1-methyl-4-[(4-phenylphenyl)sulfonylmethyl]cyclohexyanol and 1-methyl-4-[[4-(2-pyridyl)phenyl]sulfonylmethyl]cyclohexanol compounds and their therapeutic use” (Modern Biosciences Limited, priority 2018, dated 2023).

Where only a bound is given, the exact number is not on record here.

One series concerns the target CYP1A2 (Homo sapiens (Human), UniProt P05177). Briefly: Human Cytochrome P450 Inhibition Assay (Bactosomes).
For the next series, the target named is CYP2D6 (Homo sapiens (Human), UniProt P10635). The series is described as above. The series is classed as in vitro ADME. To be noted: recombinant Bactosomes, 10 minutes, 37° C.
Chain of CYP2D6 (P10635 whole entry): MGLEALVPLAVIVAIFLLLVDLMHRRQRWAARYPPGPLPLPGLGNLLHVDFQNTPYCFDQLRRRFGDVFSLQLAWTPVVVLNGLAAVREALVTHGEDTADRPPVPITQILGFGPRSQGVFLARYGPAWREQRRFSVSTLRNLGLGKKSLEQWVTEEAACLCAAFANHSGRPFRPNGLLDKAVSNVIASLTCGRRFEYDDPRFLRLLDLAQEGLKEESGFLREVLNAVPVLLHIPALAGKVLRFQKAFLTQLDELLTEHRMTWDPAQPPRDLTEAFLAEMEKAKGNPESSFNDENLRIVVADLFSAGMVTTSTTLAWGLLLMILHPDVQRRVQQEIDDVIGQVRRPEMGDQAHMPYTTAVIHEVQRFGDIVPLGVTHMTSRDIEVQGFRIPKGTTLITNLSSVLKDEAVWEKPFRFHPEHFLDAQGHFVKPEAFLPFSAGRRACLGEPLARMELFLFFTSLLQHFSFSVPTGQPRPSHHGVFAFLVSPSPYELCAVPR
Series [1] in a line: Human hepatocyte stability. To be noted: human, pooled human hepatocytes, human hepatocytes, 1 μM, 60 minute incubation; for hepatocyte CLint at 1 μM: read-out: Human Clint (uL/min/million cells); for half-life at 1 μM: read-out: Human t1/2. In kind it is in vitro ADME. As for the experimental part: (§1) Metabolic stability of test compounds was measured by determination of the rate of disappearance of the compound when incubated in the presence of rat or human hepatocytes, a primary source of the most important enzymes (cytochrome P450s) involved in drug metabolism. Study of drug stability in the presence of primary hepatocytes is accepted as a valuable model permitting rapid prediction of in vivo drug stability.
(§2) Rat or human hepatocytes were obtained from a commercial source and viability was assessed using a trypan blue solution prior to use. Test compounds (final concentration 1 μM, 0.1% DMSO, 0.9% acetonitrile) or a marker (diclofenac or diltiazem, final assay concentration 1 μM, 0.1% DMSO, 0.9% acetonitrile) were incubated with pooled hepatocytes for a 60 minute period and samples removed at up to 6 time points and analysed by LC-MS/MS for the presence/amount of test compounds.
(§3) Each compound was incubated for 0, 5, 15, 30, 45, or 60 minutes. The reactions were stopped by the addition of methanol containing an internal standard (1 μM Tolbutamide) at the appropriate time points, mixed and placed at −20° C. for ≥1 hour to quench and allow protein to precipitate. All samples were centrifuged (2500×g, 20 minutes, 4° C.). The aliquots were analysed using LC-MS/MS. Reactions were performed in duplicate at 37° C.
(§4) Data were processed, and the results plotted as In(concentration) vs. time. The elimination rate constant (slope of the regression line, k) was calculated using the following formula, where C(t) is the concentration at time t and C(0) is the starting concentration:
(§5) The half-life (t1/2) was calculated using the following formula: […]
(§6) The intrinsic clearance (CIint) was calculated using the following formula, where [cell] is the hepatocyte concentration in the assay: […]

In another series the target is CYP2C19 (Homo sapiens (Human), UniProt P33261). Kind of series: Human Cytochrome P450 Inhibition Assay (Bactosomes). In kind it is in vitro ADME. Conditions: recombinant Bactosomes, 10 minutes, 37° C.
Chain of CYP2C19 (P33261 whole entry): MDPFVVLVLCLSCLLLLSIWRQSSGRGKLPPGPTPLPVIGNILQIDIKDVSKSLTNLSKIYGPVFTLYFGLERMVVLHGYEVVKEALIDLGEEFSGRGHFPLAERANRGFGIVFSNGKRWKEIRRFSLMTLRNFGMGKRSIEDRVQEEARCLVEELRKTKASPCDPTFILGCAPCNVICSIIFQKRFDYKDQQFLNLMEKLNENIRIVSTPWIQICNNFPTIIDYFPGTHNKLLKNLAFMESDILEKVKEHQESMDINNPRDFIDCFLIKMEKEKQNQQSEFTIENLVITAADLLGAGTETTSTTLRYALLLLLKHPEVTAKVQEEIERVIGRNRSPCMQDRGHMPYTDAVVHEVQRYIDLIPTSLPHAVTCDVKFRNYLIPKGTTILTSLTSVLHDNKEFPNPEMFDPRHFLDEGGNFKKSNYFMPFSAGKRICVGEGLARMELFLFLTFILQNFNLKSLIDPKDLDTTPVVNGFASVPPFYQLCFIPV
For another series, the target named is CYP3A4 (Homo sapiens (Human), UniProt P08684). The series is described as above. The series is classed as in vitro ADME. To be noted: recombinant Bactosomes, 10 minutes, 37° C.
Chain of CYP3A4 (P08684 whole entry): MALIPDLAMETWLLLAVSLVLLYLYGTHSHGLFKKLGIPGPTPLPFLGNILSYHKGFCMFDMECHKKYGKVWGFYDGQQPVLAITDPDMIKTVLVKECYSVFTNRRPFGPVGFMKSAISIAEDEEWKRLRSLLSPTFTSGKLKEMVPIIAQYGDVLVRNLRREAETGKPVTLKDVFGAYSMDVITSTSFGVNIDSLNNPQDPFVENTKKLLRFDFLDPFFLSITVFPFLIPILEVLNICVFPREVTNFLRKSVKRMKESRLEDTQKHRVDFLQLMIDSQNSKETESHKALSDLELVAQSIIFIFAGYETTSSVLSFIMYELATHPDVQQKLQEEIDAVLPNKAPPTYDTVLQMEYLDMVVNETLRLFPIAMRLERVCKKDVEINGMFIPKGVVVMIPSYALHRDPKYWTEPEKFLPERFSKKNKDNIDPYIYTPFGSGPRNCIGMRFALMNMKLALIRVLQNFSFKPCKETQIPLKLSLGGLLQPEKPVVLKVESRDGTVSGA
Series [2] deals with Thp1 human monocytic cells. Briefly: Thp1 Monocyte ATP Production Assay. To be noted: for IC50: Homo sapiens, THP-1, 24 h, Thp1 cells, 24 hour incubation, ATPLite, 9-point range 10 μM to 10 nM, mean of 2 independent experiments; for potency in the Thp1 monocytic ATP assay (in words): compared to the reference compounds. In kind it is cell-based. As for the experimental part: In vitro potency of test compounds was determined by incubation with Thp1 human monocytic cells and subsequent determination of Adenosine TriPhosphate (ATP) levels using firefly luciferase.
ATP is present in all metabolically active cells. When cells lose integrity, their ability to synthesise ATP is rapidly lost. […] See, e.g., Kang et al., 2015; Jiang et al., 2013. Levels of ATP can be monitored using a system based on firefly (Photinus pyralis) luciferase (see, e.g., Auld et al., 2009) using commercially available kits. A system known as
ATPlite™ was using to measure effects of the test compounds on cellular viability in vitro. This one-step assay system is an adenosine triphosphate (ATP) monitoring system based on the production of light caused by the reaction of ATP from the cells with added luciferase and D-luciferin, as illustrated in the reaction scheme below:
The emitted light is proportional to the ATP concentration.
Thp1 cells were plated at 112500 cells per well in 125 μL RPMI-1640 (no glucose) with 1% FBS in 96-well plates. Test compounds were prepared as 100 mM solutions in DMSO. These stock solutions were diluted in DMSO and then diluted 1000× in culture medium (RPMI) before being added directly to the wells so as to give the desired final compound concentration. After a 24 hour incubation at 37° C./5% CO2, ATPLite™ (Perkin Elmer) was added to each well (1:10 v/v, 10 μL). The plate was then incubated at room temperature for 5 minutes and the emitted light was quantified on Viewlux with a measurement time of 0.3 seconds and binning 4×4.
The average results for each test compound were expressed as a percent (%) of the average control value reflecting cell viability. The average values across the concentrations tested were then plotted and the IC50 for was calculated by fitting the data to a 4-parameter IC50 equation using software from Graf it (Erithacus Software). Each experiment was repeated twice and the data are presented as the mean IC50 from both experiments.

The target of a further series is CYP2C9 (Homo sapiens (Human), UniProt P11712). Briefly: Human Cytochrome P450 Inhibition Assay (Bactosomes). In kind it is in vitro ADME. Conditions: recombinant Bactosomes, 10 minutes, 37° C.
Chain of CYP2C9 (P11712 whole entry): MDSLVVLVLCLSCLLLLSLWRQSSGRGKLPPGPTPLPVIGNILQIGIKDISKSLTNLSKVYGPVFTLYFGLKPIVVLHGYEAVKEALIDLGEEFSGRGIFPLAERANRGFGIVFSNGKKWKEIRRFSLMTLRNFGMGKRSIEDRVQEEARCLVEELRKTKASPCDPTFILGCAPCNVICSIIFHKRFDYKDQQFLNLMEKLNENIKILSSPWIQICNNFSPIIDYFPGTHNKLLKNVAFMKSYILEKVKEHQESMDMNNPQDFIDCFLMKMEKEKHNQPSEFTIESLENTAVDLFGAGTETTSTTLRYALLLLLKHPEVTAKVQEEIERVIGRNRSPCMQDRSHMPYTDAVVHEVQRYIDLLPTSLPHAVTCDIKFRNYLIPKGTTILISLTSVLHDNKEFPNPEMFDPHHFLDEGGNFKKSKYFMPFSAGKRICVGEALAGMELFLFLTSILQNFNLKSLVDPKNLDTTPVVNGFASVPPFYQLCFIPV
In another series the test system is human hepatocytes. Briefly: Human hepatocyte stability. In kind it is in vitro ADME. Conditions: hepatocyte stability, compared to the reference compounds. As for the experimental part: as §1, §2, §3, §4, §5, §6
The nature of series [3]: Aqueous solubility in FaSSIF. To be noted: kinetic from dmso stock, pH 6.5, three replicates. In kind it is physicochemical. As for the experimental part:
Aqueous solubility was measured by equilibration of compounds with fasted state simulated intestinal fluid (FaSSIF) and quantified spectrophotometrically.
Preparation of blank FaSSIF: 0.21 g of sodium hydroxide (NaOH) pellets, 1.97 g of dihydrogen sodium phosphate (NaH2PO4.2H2O) and 3.09 g of sodium chloride (NaCl) were dissolved in 400 mL of deionised water. The pH was adjusted to 6.5 using 1 M hydrochloric acid and further deionised water added to a final volume of 500 mL.
Preparation of FaSSIF: 0.056 g of SIF Powder (containing sodium taurocholate and lecithin) (Phares AG) was dissolved in 25 mL of blank FaSSIF and stirred until the powder was completely dissolved. The solution was allowed to stand for 2 hours during which it became opalescent; it was used within 24 hours. The final solution composition was characterised as follows: • Sodium taurocholate: 3 mM • Lecithin: 0.75 mM • Osmolarity: 270±10 mOsmol • pH: 6.5
The optical density was measured at the end of the incubation period for test compounds and a reference used to determine solubility. In brief, two samples were prepared for each determination: a reference sample consisting of a stock solution of test compound in DMSO diluted in system solution (a phosphate free, low absorption buffer) and propanol; and a test sample (prepared in triplicate) consisting of 0.5 mL FaSSIF spiked with test compound at 0.2 mM. Each sample was incubated at room temperature for 16 hours with constant shaking at 250 rpm. At the end of the incubation period, 0.3 mL of each sample was filtered through a pION filter plate (PION, Woburn MA), diluted 1:1 with propanol and scanned using UV spectrophotometry at λmax ([…]) using a Spectra Max Plus—Version 2.1000 (Molecular Devices, Sunnyvale, CA), with pSOL Explorer solubility determination software (pION, Woburn, MA).
FaSSIF solubility was calculated using the following formula:
[formula] • wherein: • “OD” is the optical density; • “Cr” is the concentration of the reference (33.4 μM); and • “molecular weight” is for the test compound (e.g., 381.44 for ABD735).

A further series in a line: Rat hepatocyte stability. In kind it is in vitro ADME. Conditions: rat, pooled rat hepatocytes, 60 minute incubation; for hepatocyte CLint at 1 μM: read-out: Rat Clint (μL/min/million cells); for half-life at 1 μM: read-out: Rat t1/2. As for the experimental part:
as §1, §2, §3, §4, §5, §6

Chain of CYP1A2 (P05177 whole entry): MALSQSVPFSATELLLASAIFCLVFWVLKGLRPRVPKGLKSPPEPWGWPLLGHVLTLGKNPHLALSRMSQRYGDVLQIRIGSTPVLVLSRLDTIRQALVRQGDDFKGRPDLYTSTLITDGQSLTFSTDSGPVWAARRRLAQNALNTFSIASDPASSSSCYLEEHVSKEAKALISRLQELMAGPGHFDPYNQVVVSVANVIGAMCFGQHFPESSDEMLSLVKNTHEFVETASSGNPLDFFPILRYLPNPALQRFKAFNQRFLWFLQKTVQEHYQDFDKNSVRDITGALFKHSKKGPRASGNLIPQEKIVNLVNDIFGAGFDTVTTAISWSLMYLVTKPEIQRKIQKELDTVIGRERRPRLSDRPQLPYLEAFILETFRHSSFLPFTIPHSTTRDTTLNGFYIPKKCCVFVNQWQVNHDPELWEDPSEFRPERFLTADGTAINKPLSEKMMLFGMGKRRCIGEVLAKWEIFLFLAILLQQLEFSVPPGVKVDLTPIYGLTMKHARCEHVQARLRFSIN

For the molecule `C[C@]1(O)CC[C@H](CS(=O)(=O)c2ccc(-c3ccc(C#N)cc3F)cc2C(F)(F)F)CC1` [CHMSA-02-B], the IC50 at CYP1A2 is more than 10 µM; on CYP2D6, more than 10 µM; at CYP2C19, more than 10 µM; on CYP3A4 it was more than 10 µM; in [2] it was 300 nM; on CYP2C9, more than 10 µM. For the same molecule, the hepatocyte CLint at 1 μM in [1] was 10.8 µL/min/1e6 cells. The half-life at 1 μM in series [1] is 122 min. Also, in [2], the “potency in the Thp1 monocytic ATP assay (in words)” value is reported as “excellent potency”.
Take `C[C@]1(O)CC[C@H](CS(=O)(=O)c2ccc(-c3ncc(F)cc3F)c(F)c2)CC1` [CHMSA-03-B, trans-4-(((4-(3,5-Difluoropyridin-2-yl)-3-fluorophenyl)sulfonyl)methyl)-1-methylcyclohexan-1-ol]: the “metabolic stability (in words)” value in the series with human hepatocytes is recorded as “exceptionally good stability”. In series [1], the hepatocyte CLint at 1 μM was less than 3 µL/min/1e6 cells and the half-life at 1 μM is more than 460 min. The IC50 in [2] turned out to be 5400 nM.
In the case of `C[C@]1(O)CC[C@@H](CS(=O)(=O)c2ccc(-c3ccc(F)cc3F)cc2)CC1` [CHMSA-04-A, cis-4-(((2′,4′-Difluoro-(1,1′-biphenyl)-4-yl)sulfonyl)methyl)-1-methylcyclohexan-1-ol], in series [1], the hepatocyte CLint at 1 μM came to 40.6 µL/min/1e6 cells and the half-life at 1 μM was found to be 27.5 min. In series [3], this molecule yielded a solubility at 16 h of more than 70 µg/mL. Further, in “Rat hepatocyte stability”, the hepatocyte CLint at 1 μM turned out to be 37.4 µL/min/1e6 cells and the half-life at 1 μM stood at 47.1 min. Further, it took 980 nM to reach half-maximal inhibition in series [2] (IC50).
`C[C@]1(O)CC[C@@H](CS(=O)(=O)c2ccc(-c3ccc(C#N)cc3Cl)cc2)CC1` [CHMSA-05-A, 2-chloro-4′-(((cis-4-hydroxy-4-methylcyclohexyl)methyl)sulfonyl)-[1,1′-biphenyl]-4-carbonitrile]: the 50% inhibitory concentration (IC50) against CYP1A2 is more than 50 µM; at CYP2D6, more than 50 µM; on CYP2C19 it was 36.6 µM; on CYP3A4, 26.3 µM; in [2], 800 nM; on CYP2C9 it was 7 µM. Moreover, the hepatocyte CLint at 1 μM in series [1] came to 3.3 µL/min/1e6 cells. The half-life at 1 μM in series [1] came out at 397 min.
Consider `C[C@]1(O)CC[C@H](CS(=O)(=O)c2ccc(-c3ccc(F)cc3F)cc2C(F)(F)F)CC1` [CHMSA-08-B, trans-4-(((2′,4′-Difluoro-3-(trifluoromethyl)-[1,1′-biphenyl]-4-yl)sulfonyl)methyl)-1-methylcyclohexan-1-ol], for which the 50% inhibitory concentration (IC50) was more than 10 µM against CYP1A2; more than 10 µM at CYP2D6; more than 25 µM on CYP2C19; 400 nM in series [2]; more than 25 µM at CYP2C9. The hepatocyte CLint at 1 μM in series [1] came out at 9.8 µL/min/1e6 cells. Besides, the half-life at 1 μM in series [1] was 138 min.
Take `C[C@]1(O)CC[C@@H](CS(=O)(=O)c2ccc(-c3ncc(F)cc3F)cc2C(F)(F)F)CC1` [CHMSA-09-A, cis-4-(((4-(3,5-difluoropyridin-2-yl)-2-(trifluoromethyl)phenyl)sulfonyl)methyl)-1-methylcyclohexan-1-ol]: the 50% inhibitory concentration (IC50) at CYP1A2 is more than 25 µM; at CYP2D6, more than 25 µM; on CYP2C19, 25 µM; at CYP3A4, more than 25 µM; in [2], 300 nM; at CYP2C9, more than 25 µM. The hepatocyte CLint at 1 μM in series [1] was found to be 12.1 µL/min/1e6 cells. Moreover, the half-life at 1 μM in series [1] worked out at 112 min. In addition, the “potency in the Thp1 monocytic ATP assay (in words)” value in [2] was “excellent potency”.
With `C[C@]1(O)CC[C@@H](CS(=O)(=O)c2ccc(-c3ccc(Cl)cc3C#N)cc2)CC1` [CHMSA-10-A, 4-chloro-4′-((cis-4-hydroxy-4-methylcyclohexyl)methanesulfonyl)-(1,1′-biphenyl)-2-carbonitrile], the hepatocyte CLint at 1 μM in series [1] was 30.8 µL/min/1e6 cells; in the series “Rat hepatocyte stability”, 149 µL/min/1e6 cells. In addition, the half-life at 1 μM was found to be 37 min in [1] and 10.7 min in the series “Rat hepatocyte stability”. Also, the IC50 in series [2] was determined as 1630 nM.
For the molecule `C[C@]1(O)CC[C@@H](CS(=O)(=O)c2ccc(-c3ccc(Cl)cc3Cl)cc2)CC1` [CHMSA-11-A, cis-4-(((2′,4′-dichloro-[1,1′-biphenyl]-4-yl)sulfonyl)methyl)-1-methylcyclohexan-1-ol], the IC50 against CYP1A2 was more than 10 µM; on CYP2D6, more than 10 µM; on CYP2C19, 25 µM; in series [2], 500 nM; at CYP2C9, more than 10 µM. Moreover, in [1], the hepatocyte CLint at 1 μM was 7.8 µL/min/1e6 cells. In addition, the half-life at 1 μM in series [1] came to 172 min.
Regarding `C[C@]1(O)CC[C@@H](CS(=O)(=O)c2ccc(-c3ccc(C#N)cc3)c(F)c2)CC1` [CHMSA-12-A, 2′-fluoro-4′-(((cis-4-hydroxy-4-methylcyclohexyl)methyl)sulfonyl)-[1,1′-biphenyl]-4-carbonitrile], the “metabolic stability (in words)” value in the series with human hepatocytes is on record as “exceptionally good stability”. In addition, in series [1], the hepatocyte CLint at 1 μM was less than 3.1 µL/min/1e6 cells and the half-life at 1 μM was more than 436 min. Also, the IC50 in [2] stood at 1800 nM.
`C[C@]1(O)CC[C@H](CS(=O)(=O)c2ccc(-c3ccc(C#N)cc3)c(F)c2)CC1` [CHMSA-12-B, 2′-Fluoro-4′-(((trans-4-hydroxy-4-methylcyclohexyl)methyl)sulfonyl)-[1,1′-biphenyl]-4-carbonitrile]: in the series on human hepatocytes, the “metabolic stability (in words)” value is recorded as “exceptionally good stability”. In [1], the hepatocyte CLint at 1 μM is less than 3.1 µL/min/1e6 cells and the half-life at 1 μM is more than 442 min. Further, the IC50 in [2] was 3200 nM.
